Marks after values point to notes of the source that are not given here.
Tests used:
[1] = DPPH radical-scavenging activity
Description: The essential oil of Mentha piperita was performed using a 1,1-diphenyl-2-picryl hydrazyl (DPPH) technique, as reported in Brand-Williams et al. with some changes. Briefly, a 2.5 mL aliquot of DPPH solution was mixed with 1.25 mL of the essential oil at a concentration of 1 mg/mL, and then the obtained solution was incubated at 25 °C for 30 min. The absorbance was measured at 517 nm.

[2] = Trolox equivalent antioxidant capacity (ABTS) assay
Description: The assay was carried out using the ABTS^+ method as described by Re et al. with some modifications. Briefly, the ABTS radical cation was generated by mixing 10 mL of 2 mM ABTS with 100 µL of potassium persulfate (2.45 mM). After the reaction mixture is kept in the dark at room temperature for 16 h, methanol is used to dilute the ABTS solution to obtain an absorbance of 0.700 at 734 nm. Two hundred µL of the essential (1 mg/mL) was mixed with 2 mL of diluted ABTS solution. The mixture was allowed to react for 1 min, and the absorbance was measured at 734 nm. Trolox is used as a reference standard. The results were expressed as an IC50 value (µg/mL).

H2O2-scavenging activity = test: H2O2-scavenging activity
Description: The H2O2 radical scavenging activity of extracts was determined according to the method described by Ruch et al.. Briefly, 40 mM of H2O2 solution was prepared in phosphate buffer (pH 7.4). A total of 1 mL of M. piperita HE at a concentration of 1 mg/mL was added to 0.6 mL of H2O2 solution. The mixture was incubated at 25 °C for 10 min, and the absorbance of H2O2 was determined at 230 nm against a blank solution containing phosphate buffer without H2O2. The positive control used is Ascorbic acid. The H2O2 trapping capacity was expressed as an IC50 value (µg/mL).

P. aeruginosa ATCC 27853 = test: MIC and MBC determination; assay type: cell-based, Pseudomonas aeruginosa; design: unit not given beside the values; conditions: chloramphenicol, unit not given
Description: (§1) The antibacterial activity of M. piperita essential oils (MPEO) from Ouezzane and Azrou regions (Morocco) was evaluated against the following six bacterial strains: three gram-positive bacteria (Staphylococcus aureus ATCC 29213, Listeria monocytogenes ATCC 13932, Bacillus subtilis ATCC 6633), and three gram-negative bacteria (Escherichia coli ATCC 25922, Salmonella typhimurium ATCC 700408, and Pseudomonas aeruginosa ATCC 27853).
(§2) An inoculum of the frozen stock (−20 °C) was utilized to inoculate Mueller–Hinton Agar (Biokar, Beauvais, France), where it was incubated for 24 h at 37 °C to revive the bacteria. Then, an inoculum was removed from a bacterial colony and diluted to 0.5 McFarland in sterile salt water (0.9% NaCl) before being transferred to a sterile tube where the weighty particles were left to settle for 5 min. The top homogeneous solutions were transferred to a new, sterile tube and their concentration was adjusted to the 0.5 McFarland turbidity standard to obtain an inoculum of about […], which was used in the antibacterial testing
(§3) The minimum inhibitory concentration (MIC) is the lowest essential oil concentration that could prevent the growth of bacteria. […]
(§4) The MBC was determined to be the minimum concentration at which no growth occurred in the medium. […]

[3] = test system: S. typhimurium ATCC 700408; test: MIC and MBC determination; assay type: cell-based, Salmonella typhimurium
Description: as §1, §2
(§5) The minimum inhibitory concentration (MIC) is the lowest essential oil concentration that could prevent the growth of bacteria. The determination of MIC values against bacteria was conducted according to the previously reported procedure with a minor change, using Mueller–Hinton broth (Biokar, Beauvais, France) and bacteria. Twenty-four h of incubation was done at 37 °C. The antibiotic chloramphenicol served as a positive control. In sterile microtubes, two-fold serial dilutions of EO concentrations ranging from 4% to 0.0625 % (v/v) were made in Mueller–Hinton broth containing 5% of DMSO. […] Then, 5 µL of the previously produced bacterial suspension was added to each tube. Each suspension was homogenized and incubated for 24 h at 37 °C. As a first negative control, microtubes containing liquid medium and EO were used. […]
as §4

B. subtilis ATCC 6633 = test: MIC and MBC determination; assay type: cell-based, Bacillus subtilis; design: MIC / MBC: unit not given beside the values
Description: as §1, §2, §5, §4

[4] = test system: L. monocytogenes ATCC 13932; test: MIC and MBC determination; assay type: cell-based, Listeria monocytogenes; design: MIC / MBC: unit not given beside the values
Description: as §1, §2, §5, §4

E. coli ATCC 25922 = test: MIC and MBC determination; assay type: cell-based, Escherichia coli; design: MBC: unit not given beside the values
Description: as §1, §2, §3, §4

S. aureus ATCC 29213 = test: MIC and MBC determination; assay type: cell-based, Staphylococcus aureus; design: MBC: unit not given beside the values
Description: as §1, §2, §3, §4

[5] = test system: carrageenan-induced rat paw edema; test: Carrageenan-induced paw edema; assay type: in vivo, Wistar rats; conditions: EO 100 mg/kg oral, indomethacin 10 mg/kg
Description: The studies were carried out on adult rats of the Wistar strain, obtained from the central animal facility of the Faculty of Medicine and Pharmacy of Rabat. These rats weighed between 200 and 250 g. The temperature was maintained at 20 °C with a lighting cycle of 12 h of light and 12 h of darkness. The study was approved by the Ethics Committee from Mohammed V University, (Protocol code # UA-2021-09; date of approval 27 May 2021).
The anti-inflammatory effects were studied using the carrageenan-induced paw edema method previously described by Musa G. Rege et al.. Briefly, Wistar rats (160 to 200 g) were randomly divided into […] (n = 6). The first two groups were orally administered with 100 mg/kg of M. pepirita EO. The third group was a negative control which received distilled water, while the last group was considered a positive control and received indomethacin (10 mg/kg) as the reference anti-inflammatory drug. After 60 min, all rats were injected subcutaneously with carrageenan solution (0.05 mL of 1% carrageenan suspended in 0.9% NaCl) into the subplantar region of the left hind paw. […] The anti-inflammatory effect is calculated using the following equation. In each group, the anti-inflammatory effect is measured by the percentage of edema inhibition (% INH) in paw volume, as follows: %INH = (mean [VL − VR] Control − mean [VL − VR] Treated)/[VL − VR] Control × 100 • With: VL: volume of the left paw. • VR: volume of the right paw.

[6] = chloramphenicol, unit not given

O=C1O[C@H]([C@@H](O)CO)C(O)=C1O [Ascorbic acid]
DPPH IC50 [1]: 09.03 ± 0.02 ^a µg/mL
ABTS Test IC50 [2]: 74.81 ± 0.01 ^a µg/mL
H2O2 IC50 (H2O2-scavenging activity): 3.23 ± 0.08 ^a µg/mL

O=C(N[C@H](CO)[C@H](O)c1ccc([N+](=O)[O-])cc1)C(Cl)Cl [Chloramphenicol]
MBC (P. aeruginosa ATCC 27853): >64.0
MIC (P. aeruginosa ATCC 27853): >64.0
MBC/MIC [3]: 1.0
MBC [3, 6]: 64.0
MIC [3, 6]: 64.0
MBC/MIC (B. subtilis ATCC 6633): 1.0
MBC (B. subtilis ATCC 6633; [6]): 32.0
MIC (B. subtilis ATCC 6633; [6]): 32.0
MBC/MIC [4]: 1.0
MBC [4, 6]: 2.0
MIC [4, 6]: 2.0
MBC/MIC (E. coli ATCC 25922): 1.0
MBC (E. coli ATCC 25922; [6]): 8.0
MBC/MIC (S. aureus ATCC 29213): 1.0
MBC (S. aureus ATCC 29213; [6]): 4.0

COc1ccc2c(c1)c(CC(=O)O)c(C)n2C(=O)c1ccc(Cl)cc1 [Indomethacin]
Mean Edema Volume (Left-Right Paw) ([5]; 1 h 30 min): 0.146 ± 0.04 mL
Percentage Inhibition of Edema ([5]; 1 h 30 min): 69.77%
Mean Edema Volume (Left-Right Paw) ([5]; 3 h): 0.178 ± 0.01 mL
Percentage Inhibition of Edema ([5]; 3 h): 70.23%
Mean Edema Volume (Left-Right Paw) ([5]; 6 h): 0.191 ± 0.01 mL
Percentage Inhibition of Edema ([5]; 6 h): 59.61%

Source: PMC9658668, “Phytochemical Variability, In Vitro and In Vivo Biological Investigations, and In Silico Antibacterial Mechanisms of Mentha piperita Essential Oils Collected from Two Different Regions in Morocco” (Foods, 2022)
